Test systems include 786-0 renal; NCI-H23 lung; HT29 colon; OVCAR-4 ovarian; SK-OV-3 ovarian; UO-31 renal; OVCAR-5 ovarian; SK-MEL-5 melanoma; HCC-2998 colon; MDA-MB-435.
Common to all, as to experiment: inhibition of tumour cell growth, NCI panel, 48 h

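How tested: cells in 96-well plates exposed to compound for 48 hours at five concentrations. GI50 is the concentration that inhibits growth by half. TGI denotes the concentration required for complete inhibition of growth.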

For `N#CCCN(CCC#N)c1ccc(/C=N\c2nc(-c3ccccc3)cs2)cc1`, the TGI with 786-0 renal, in the assay on NCI-H23 lung, with HT29 colon, in the assay with OVCAR-4 ovarian, with SK-OV-3 ovarian and in the assay on UO-31 renal was greater than 100 µM each time. For the same compound, the TGI in the assay on OVCAR-5 ovarian and with SK-MEL-5 melanoma was greater than 100 µM throughout.
For `Cc1cc(Cl)ccc1NC(=O)CC1SC(N)=NC1=O` (centres undefined), the TGI with 786-0 renal, in the assay with NCI-H23 lung, in the assay with HT29 colon, in the assay with OVCAR-4 ovarian, in the assay on SK-OV-3 ovarian and in the assay on UO-31 renal was greater than 100 µM each time. Moreover, the TGI in the assay with HCC-2998 colon, in the assay on OVCAR-5 ovarian and in the assay with SK-MEL-5 melanoma was greater than 100 µM in each case.
As for `CC(=O)OC1(C#N)CC2OC1C1C2N1C(=O)OC(C)(C)C` (centres undefined), the TGI in the assay with 786-0 renal, in the assay with NCI-H23 lung, in the assay with OVCAR-4 ovarian, in the assay with SK-OV-3 ovarian, with UO-31 renal and in the assay with HCC-2998 colon was greater than 100 µM each time. In addition, the TGI with OVCAR-5 ovarian and in the assay with SK-MEL-5 melanoma was greater than 100 µM in each case.
As to `CN1C(=O)c2cc([N+](=O)[O-])ccc2[C@H]2C(=O)c3cc4c(cc3[C@H]21)OCO4`, the GI50 is 0.0388 µM with 786-0 renal; 0.21 µM in the assay with NCI-H23 lung; 0.167 µM in the assay with MDA-MB-435; 0.179 µM in the assay with HT29 colon; 0.68 µM in the assay with OVCAR-4 ovarian; 0.588 µM with SK-OV-3 ovarian. For the same compound, the GI50 with UO-31 renal was 0.0409 µM; in the assay on OVCAR-5 ovarian, 0.299 µM; in the assay with SK-MEL-5 melanoma it was 0.0534 µM. For the same compound, the TGI is 0.796 µM in the assay on NCI-H23 lung; 2.72 µM in the assay with MDA-MB-435; greater than 43.2 µM in the assay on HT29 colon; greater than 100 µM in the assay with OVCAR-4 ovarian; greater than 100 µM in the assay with SK-OV-3 ovarian; 1.51 µM in the assay with UO-31 renal. In addition, the TGI in the assay on OVCAR-5 ovarian came to 0.926 µM; with SK-MEL-5 melanoma it was 0.176 µM.
As to `Cc1ccc(NC(=O)COC(=O)c2cccc3c(=O)c4ccccc4[nH]c23)cc1`, the TGI with 786-0 renal was greater than 100 µM; in the assay with NCI-H23 lung, 74.3 µM; in the assay on HT29 colon it was greater than 100 µM; with OVCAR-4 ovarian, greater than 100 µM; in the assay on SK-OV-3 ovarian, 92 µM; in the assay with UO-31 renal, 42.9 µM. In addition, the TGI with HCC-2998 colon and in the assay on SK-MEL-5 melanoma was greater than 100 µM throughout.
With `Cn1c(=O)c2[nH]c(C3CC(=O)CC(c4nc5c([nH]4)c(=O)n(C)c(=O)n5C)N3)nc2n(C)c1=O` (centres undefined), the TGI in the assay on 786-0 renal, with NCI-H23 lung, with MDA-MB-435, in the assay with HT29 colon, with OVCAR-4 ovarian and with SK-OV-3 ovarian was greater than 100 µM in each case. In addition, the TGI in the assay with UO-31 renal, with OVCAR-5 ovarian and in the assay on SK-MEL-5 melanoma was greater than 100 µM each time.
As to `COC(=O)c1c(C)cc2c(c1O)C1(O)C(=O)c3cc4c(c(O)c3C(=O)C1(OC)C(O)C2)C(=O)C=C(NC1OC(C)C(OC)C(O)C1OC)C4=O` (centres undefined), the TGI in the assay on 786-0 renal is 0.202 µM; in the assay with NCI-H23 lung it was 0.0368 µM; with HT29 colon, 0.222 µM; in the assay with OVCAR-4 ovarian, 0.213 µM; with SK-OV-3 ovarian, 1.58 µM; in the assay with UO-31 renal, 0.427 µM. Further, the TGI is 0.28 µM with HCC-2998 colon and 0.401 µM in the assay with OVCAR-5 ovarian.
Turning to `CN(C)CC(C)(C)C(/C=C/c1ccccc1)=N\Nc1ccccc1`, the TGI stood at 14.8 µM in the assay with 786-0 renal; 23.5 µM in the assay on NCI-H23 lung; 27.9 µM with HT29 colon; 17.9 µM in the assay on OVCAR-4 ovarian; 38.8 µM in the assay with SK-OV-3 ovarian; 0.843 µM in the assay with UO-31 renal. In addition, the TGI with OVCAR-5 ovarian was determined as 2 µM; with SK-MEL-5 melanoma, 20.7 µM.
In the case of `O=C1CCCC(=O)C1=C(O)CCCCCCCCCCc1ccccc1`, the TGI is greater than 100 µM in the assay with 786-0 renal; greater than 100 µM with NCI-H23 lung; 79 µM in the assay with HT29 colon; greater than 100 µM with OVCAR-4 ovarian; 96.8 µM in the assay with SK-OV-3 ovarian; 60.1 µM with UO-31 renal. For the same compound, the TGI was greater than 100 µM in the assay with HCC-2998 colon, 74.6 µM with OVCAR-5 ovarian and 49.5 µM in the assay with SK-MEL-5 melanoma.
`Cc1ccc([N+](=O)[O-])cc1NC(=O)C(=O)Cc1cc(=O)oc2cc(O)ccc12`: the TGI in the assay on 786-0 renal, with NCI-H23 lung, with HT29 colon, in the assay on OVCAR-4 ovarian, with SK-OV-3 ovarian and in the assay with UO-31 renal was greater than 100 µM in each case. For the same compound, the TGI in the assay on HCC-2998 colon, with OVCAR-5 ovarian and in the assay on SK-MEL-5 melanoma was greater than 100 µM in each case.
Regarding `Cc1cc(NS(=O)(=O)c2ccc(NC(=O)c3cccc4cc5ccccc5nc34)cc2)no1`, the TGI is 32.6 µM in the assay on 786-0 renal; 39.3 µM in the assay with NCI-H23 lung; greater than 100 µM in the assay on HT29 colon; 39.7 µM in the assay on OVCAR-4 ovarian; greater than 100 µM in the assay on SK-OV-3 ovarian; 19.2 µM in the assay on UO-31 renal. The TGI was 57.3 µM in the assay with OVCAR-5 ovarian and 30.3 µM with SK-MEL-5 melanoma.
`Cc1nc(N)sc1N=Nc1cc(Cl)c([N+](=O)[O-])cc1Cl`: the TGI was greater than 100 µM with 786-0 renal; 42.1 µM in the assay with MDA-MB-435; 28.7 µM in the assay on HT29 colon; greater than 100 µM with SK-OV-3 ovarian; 66.9 µM in the assay on UO-31 renal; 84.6 µM in the assay on OVCAR-5 ovarian. The same compound displayed a TGI in the assay with SK-MEL-5 melanoma of 19.4 µM.
Turning to `N#CCc1ccc(/C(C#N)=C2/OC(=N)C(c3ccc(CC#N)cc3)C2=O)cc1` (centres undefined), the TGI with 786-0 renal, in the assay on NCI-H23 lung, with HT29 colon, with OVCAR-4 ovarian, with SK-OV-3 ovarian and with UO-31 renal was greater than 100 µM each time. Moreover, the TGI in the assay on OVCAR-5 ovarian and in the assay with SK-MEL-5 melanoma was greater than 100 µM throughout.
On to `O=C1C2C(C(=O)N1c1ccccc1)C1(c3ccccc3)OC2(c2ccccc2)c2ccccc21` (centres undefined), for which the TGI in the assay with 786-0 renal, in the assay with NCI-H23 lung, with HT29 colon, with OVCAR-4 ovarian, with SK-OV-3 ovarian and in the assay with UO-31 renal was greater than 100 µM throughout. The TGI with HCC-2998 colon, in the assay on OVCAR-5 ovarian and with SK-MEL-5 melanoma was greater than 100 µM throughout.
For the compound `Oc1ccc2c3c1OC1C(=NN=C4CCC5(O)C6Cc7ccc(O)c8c7C5(CCN6CC5CC5)C4O8)CCC4(O)C(C2)N(CC2CC2)CCC314` (centres undefined), the TGI with 786-0 renal is 66.2 µM; in the assay on NCI-H23 lung it was 99 µM; with HT29 colon, 32.8 µM; with OVCAR-4 ovarian, greater than 66 µM; in the assay with SK-OV-3 ovarian, greater than 75.2 µM; in the assay with UO-31 renal it was greater than 100 µM. Also, the TGI in the assay with HCC-2998 colon is 52.7 µM; with OVCAR-5 ovarian, greater than 100 µM; with SK-MEL-5 melanoma it was 34.8 µM.
